According to US20090258947A1 (priority 2006, published 2009):
Like-named read-outs stand apart in the source and are kept apart here. Marks after values point to notes of the source that are not given here.

What was measured:
[1] = tested on: carrageenan induced paw edema in Wistar rats; conditions: for Change in volume (ml) at hour (h): mean ± S.E.M., n = 6
Experimental: Male Wistar rats (180-250 g) were selected for the study comprising 6 animals in each group for the duration of study of 1 day. The vehicle used was (0.5% CMC in 0.1% Tween®80) and the route of administration was peroral (p.o.). […] One hour later 0.1 ml of 1% carrageenan was administered s.c. to the right hind paw of the rat. The degree of inflammation was measured by using digital plethosmometer (Cat. No. 7140, Ugo Basile, Italy) at 0 (initial), 0.5, 1, 2, 3 and 5 hours (h) post carrageenan injection and the values were recorded. For each hour, at least 2-3 values of the dipped paw were obtained and later averaged. The increase in the paw volume (ml) was calculated by subtracting the values obtained at the n^th from the 0 hour and percentage of activity was also calculated. The changes in paw edema (ml) values were expressed as mean±S.E.M. The treatment values were compared with the control values for a particular hour using One-Way Analysis of Variance followed by Dunnett's multiple comparison test. Values of p<0.05 were considered as statistically significant.

[2] = tested on: 1% acetic acid induced writhing in mice; conditions: for No. of writhes: 20-minute session, mean ± S.E.M., N = 6
Experimental: (§1) Male Swiss mice (18-22 g) were selected for the study comprising 6 animals in each group. The dose volume was 0.1 ml/10 g body weight of mice and the route of administration was per oral (p.o.). Two tests were performed for the purpose. […] One hour later, a 1% acetic acid solution (10 ml/kg, i.p.) was used to produce writhing in mice. The numbers of writhes {constriction of abdomen, turning of trunk (twist), and extension of hind limbs} due to acetic acid were expressed as painful response. The numbers of writhes per animal were counted during a 20-minute session, beginning 3 minutes after the acetic acid injection. In second test i.e. Tail flick test, the mouse tail was placed on the radiant heat produced by the tail flick apparatus and the individual animal tail flick response was noted (a trail of three was carried out). Animals having a latency to tail withdrawal from the radiant heat source (3-5 s) were selected for the study. […] 1, 2, 4, 5 hours later, the tail flick latency were noted and the change in latency and % maximum protective effect (% MPE) was calculated. A cut off time of 10 seconds was used to prevent any injury to the tail. The changes in tail flick latency and the number of writhes are expressed as mean±S.E.M. The treatment values were compared with the control values for a particular hour using One-Way Analysis of Variance followed by Dunnett's or Bonferroni's multiple comparison test. Values of p<0.05 were considered as statistically significant.

[3] = tested on: tail flick latency to radiant heat in mice; conditions: for % MPE at hour (h) / Tail flick latency(s) at hour (h): mean ± S.E.M., N = 6
Experimental: as §1

[4] = cited from earlier work

CS(=O)(=O)Nc1ccc([N+](=O)[O-])cc1Oc1ccccc1 [Nimesulide, 4-nitro-2-phenoxymethane-sulfonanilide]
Percentage of anti-inflammatory activity at hour (h) ([1]; 1 mg/kg p.o., 0.5 h): 16%
Change in volume (ml) at hour (h) ([1]; 1 mg/kg p.o., 0.5 h post carrageenan): 0.148 ± 0.033 mL
Percentage of anti-inflammatory activity at hour (h) ([1]; 1 mg/kg p.o., 1 h): −8%
Change in volume (ml) at hour (h) ([1]; 1 mg/kg p.o., 1 h post carrageenan): 0.186 ± 0.042 mL
Percentage of anti-inflammatory activity at hour (h) ([1]; 1 mg/kg p.o., 2 h): −7%
Change in volume (ml) at hour (h) ([1]; 1 mg/kg p.o., 2 h post carrageenan): 0.312 ± 0.081 mL
Percentage of anti-inflammatory activity at hour (h) ([1]; 1 mg/kg p.o., 3 h): 20%
Change in volume (ml) at hour (h) ([1]; 1 mg/kg p.o., 3 h post carrageenan): 0.398 ± 0.092 mL
Percentage of anti-inflammatory activity at hour (h) ([1]; 1 mg/kg p.o., 5 h): 14%
Change in volume (ml) at hour (h) ([1]; 1 mg/kg p.o., 5 h post carrageenan): 0.549 ± 0.114 mL
Percentage of anti-inflammatory activity at hour (h) ([1]; 3 mg/kg p.o., 0.5 h): 22%
Change in volume (ml) at hour (h) ([1]; 3 mg/kg p.o., 0.5 h post carrageenan): 0.137 ± 0.038 mL
Percentage of anti-inflammatory activity at hour (h) ([1]; 3 mg/kg p.o., 1 h): 27%
Change in volume (ml) at hour (h) ([1]; 3 mg/kg p.o., 1 h post carrageenan): 0.126 ± 0.028 mL
Percentage of anti-inflammatory activity at hour (h) ([1]; 3 mg/kg p.o., 2 h): 33%
Change in volume (ml) at hour (h) ([1]; 3 mg/kg p.o., 2 h post carrageenan): 0.196 ± 0.056 mL
Percentage of anti-inflammatory activity at hour (h) ([1]; 3 mg/kg p.o., 3 h): 66* %
Change in volume (ml) at hour (h) ([1]; 3 mg/kg p.o., 3 h post carrageenan): 0.168 ± 0.11 mL
Percentage of anti-inflammatory activity at hour (h) ([1]; 3 mg/kg p.o., 5 h): 44%
Change in volume (ml) at hour (h) ([1]; 3 mg/kg p.o., 5 h post carrageenan): 0.354 ± 0.104 mL
Percentage of anti-inflammatory activity at hour (h) ([1]; 10 mg/kg p.o., 0.5 h): 33%
Change in volume (ml) at hour (h) ([1]; 10 mg/kg p.o., 0.5 h post carrageenan): 0.118 ± 0.027 mL
Percentage of anti-inflammatory activity at hour (h) ([1]; 10 mg/kg p.o., 1 h): 17%
Change in volume (ml) at hour (h) ([1]; 10 mg/kg p.o., 1 h post carrageenan): 0.143 ± 0.016 mL
Percentage of anti-inflammatory activity at hour (h) ([1]; 10 mg/kg p.o., 2 h): 62%
Change in volume (ml) at hour (h) ([1]; 10 mg/kg p.o., 2 h post carrageenan): 0.110 ± 0.018 mL
Percentage of anti-inflammatory activity at hour (h) ([1]; 10 mg/kg p.o., 3 h): 59* %
Change in volume (ml) at hour (h) ([1]; 10 mg/kg p.o., 3 h post carrageenan): 0.203 ± 0.032 mL
Percentage of anti-inflammatory activity at hour (h) ([1]; 10 mg/kg p.o., 5 h): 58** %
Change in volume (ml) at hour (h) ([1]; 10 mg/kg p.o., 5 h post carrageenan): 0.264 ± 0.035 mL
anti-inflammatory activity over time ([1]; 10 mg/kg, all time intervals): almost consistent anti-inflammatory activity at all time intervals
Percentage of anti-inflammatory activity at hour (h) ([1]; 30 mg/kg p.o., 0.5 h): 28%
Change in volume (ml) at hour (h) ([1]; 30 mg/kg p.o., 0.5 h post carrageenan): 0.126 ± 0.027 mL
Percentage of anti-inflammatory activity at hour (h) ([1]; 30 mg/kg p.o., 1 h): −12%
Change in volume (ml) at hour (h) ([1]; 30 mg/kg p.o., 1 h post carrageenan): 0.193 ± 0.024 mL
Percentage of anti-inflammatory activity at hour (h) ([1]; 30 mg/kg p.o., 2 h): 27%
Change in volume (ml) at hour (h) ([1]; 30 mg/kg p.o., 2 h post carrageenan): 0.214 ± 0.028 mL
Percentage of anti-inflammatory activity at hour (h) ([1]; 30 mg/kg p.o., 3 h): 38%
Change in volume (ml) at hour (h) ([1]; 30 mg/kg p.o., 3 h post carrageenan): 0.307 ± 0.020 mL
Percentage of anti-inflammatory activity at hour (h) ([1]; 30 mg/kg p.o., 5 h): 30%
Change in volume (ml) at hour (h) ([1]; 30 mg/kg p.o., 5 h post carrageenan): 0.443 ± 0.035 mL
degree of anti-inflammatory activity ([1]; 30 mg/kg p.o., from 2-5 hour): around 30%
reduction in paw volume (dose dependence) ([1]; 1, 3 and 10 mg/kg, p.o., from 2 to 5 hour): dose dependant reduction in paw volume
reduction in paw volume compared to control (significance) ([1]; 3 and 10 mg/kg at 3 hours and 10 mg/kg at 5 hours, p<0.05): statistically significant reduction in paw volume
% protection ([2]; 0.03 mg/kg p.o.): 28%
No. of writhes ([2]; 0.03 mg/kg p.o.): 23.17 ± 3.38
% protection ([2]; 0.1 mg/kg p.o.): 39%
No. of writhes ([2]; 0.1 mg/kg p.o.): 19.67 ± 2.73
No. of writhes ([2]; 0.3 mg/kg p.o.): 15.50 ± 1.88
% protection ([2]; 1.0 mg/kg p.o.): 75%
No. of writhes ([2]; 1.0 mg/kg p.o.): 8.00 ± 1.15
reduction in number of writhes (dose dependence) ([2]; doses 0.03, 0.1, 0.3 and 1 ml/kg, 1% acetic acid): dose dependant reduction in number of writhes
reduction in number of writhing (significance) ([2]; doses 0.1, 0.3 and 1 mg/kg): statistically significant reduction in number of writhing
% MPE at hour (h) ([3]; 0.1 mg/kg p.o., 1 h): 137.0 ± 37.1 %
Tail flick latency(s) at hour (h) ([3]; 0.1 mg/kg p.o., 1 h): 3.00 ± 0.58 s
% MPE at hour (h) ([3]; 0.1 mg/kg p.o., 2 h): 251.0 ± 59.9 %
Tail flick latency(s) at hour (h) ([3]; 0.1 mg/kg p.o., 2 h): 5.50 ± 0.18 s
% MPE at hour (h) ([3]; 0.1 mg/kg p.o., 3 h): 279.0 ± 49.4 %
Tail flick latency(s) at hour (h) ([3]; 0.1 mg/kg p.o., 3 h): 6.17 ± 0.33 s
% MPE at hour (h) ([3]; 0.1 mg/kg p.o., 5 h): 28.0 ± 6.1 %
Tail flick latency(s) at hour (h) ([3]; 0.1 mg/kg p.o., 5 h): 1.42 ± 0.35 s
% MPE at hour (h) ([3]; 0.3 mg/kg p.o., 1 h): 114.0 ± 16.8 %
Tail flick latency(s) at hour (h) ([3]; 0.3 mg/kg p.o., 1 h): 3.17 ± 0.51 s
% MPE at hour (h) ([3]; 0.3 mg/kg p.o., 2 h): 193.0 ± 9.5 %
Tail flick latency(s) at hour (h) ([3]; 0.3 mg/kg p.o., 2 h): 5.33 ± 0.38 s
% MPE at hour (h) ([3]; 0.3 mg/kg p.o., 3 h): 209.0 ± 4.3 %
Tail flick latency(s) at hour (h) ([3]; 0.3 mg/kg p.o., 3 h): 5.75 ± 0.21 s
% MPE at hour (h) ([3]; 0.3 mg/kg p.o., 5 h): 54.0 ± 6.6 %
Tail flick latency(s) at hour (h) ([3]; 0.3 mg/kg p.o., 5 h): 3.08 ± 0.27 s
% MPE at hour (h) ([3]; 1.0 mg/kg p.o., 1 h): 112.0 ± 22.5 %
Tail flick latency(s) at hour (h) ([3]; 1.0 mg/kg p.o., 1 h): 3.17 ± 0.67 s
% MPE at hour (h) ([3]; 1.0 mg/kg p.o., 2 h): 187.0 ± 11.9 %
Tail flick latency(s) at hour (h) ([3]; 1.0 mg/kg p.o., 2 h): 5.25 ± 0.25 s
% MPE at hour (h) ([3]; 1.0 mg/kg p.o., 3 h): 187.0 ± 12.0 %
Tail flick latency(s) at hour (h) ([3]; 1.0 mg/kg p.o., 3 h): 5.25 ± 0.28 s
% MPE at hour (h) ([3]; 1.0 mg/kg p.o., 5 h): 38.0 ± 6.1 %
Tail flick latency(s) at hour (h) ([3]; 1.0 mg/kg p.o., 5 h): 2.17 ± 0.28 s
% MPE at hour (h) ([3]; 3.0 mg/kg p.o., 1 h): 205.0 ± 32.9 %
Tail flick latency(s) at hour (h) ([3]; 3.0 mg/kg p.o., 1 h): 5.17 ± 0.73 s
% MPE at hour (h) ([3]; 3.0 mg/kg p.o., 2 h): 250.0 ± 21.9 %
Tail flick latency(s) at hour (h) ([3]; 3.0 mg/kg p.o., 2 h): 6.33 ± 0.33 s
% MPE at hour (h) ([3]; 3.0 mg/kg p.o., 3 h): 248.0 ± 20.4 %
Tail flick latency(s) at hour (h) ([3]; 3.0 mg/kg p.o., 3 h): 6.25 ± 0.21 s
% MPE at hour (h) ([3]; 3.0 mg/kg p.o., 5 h): 70.0 ± 9.5 %
Tail flick latency(s) at hour (h) ([3]; 3.0 mg/kg p.o., 5 h): 5.33 ± 0.85 s
tail flick latency to radiant heat (dose dependence) ([3]; 0.1, 0.3, 1 and 3 mg/kg, 1, 2, 3 and 5 hours): non dose dependant reduction in tail flick latency
percentage of maximum protection (significance) ([3]; all time intervals and all dose levels): statistically significant at all time intervals and at all dose levels
Time to reach peak concentration (tmax), mean ([4]; after 100 mg): 2.50 h
Time to reach peak concentration (tmax), mean ([4]; after 200 mg dose): 3.17 h
